Data on one compound can be found in patent publication US12116371B2, “Substituted pyridines as irreversible inhibitors of menin-MLL interaction” (BIOMEA FUSION, INC., priority 2018, dated 2024).

The term IC50 denotes the concentration needed to halve the response being measured.

Molecules are shown by their SMILES. Read-outs that look alike come from different tables or passages of the source.

Test in all cases: Long-term proliferation (LTP) assay, CellTiterGlo (Example 103)
Background: Cellular ATP, detected with luciferase, serves as a proxy for viable cell number.

For one experiment, the system named is HL-60 cells. Format: cell-based. To be noted: for IC50: Homo sapiens. How it is done:
(§1) The day of the experiment (TO) all the cell line suspensions were counted by Cell Viability Analyser, Vi-CELL and properly diluted with fresh medium to obtain the cell density reported in the Test System paragraph.
(§2) Cells were tested after 4 passages after thawing.
(§3) 200 μL/well and 150 μL/well of cell suspension were added into the 0.4 µL/well and 0.3 μL/well compound plates, respectively. • Cell plate containing 200 μL/well suspension was incubated at 37° C. in a humidified incubator with 5% CO2. • From each well of the 150 µL/well cell assay plate, 100 μL were harvested and transferred into a 96-well Optiplate (Perkin Elmer, Cat. n. 6005290) and cell viability was measured as described in 4.3 paragraphs (TO). • After four days in culture (T4) 150 μL/well of fresh medium were added into a new […] copy compound plate. • From each well of the 200 μL/well cell assay plate: • 100 μL were sampled for the cell viability measurement as described in 4.3 paragraphs (T4). • 50 μL were harvested and added to the 150 μL/well compound plate prepared as described in the first point to dilute 1:4 the cell suspension. • The cell assay plate diluted and containing 200 µL/well suspension were incubated at 37° C. in a humidified incubator with 5% CO2.
(§4) At T7-T11-T14 it was proceeded as described in T4, with the exception that no further cell dilution was carried out at T14.
(§5) Plates containing the samples to be tested were equilibrated at room temperature for approximately 30 min and then 30 μL/well of the Promega CellTiterGlo® reagent were added. Contents will be mixed for 5 min on an orbital shaker to induce cell lysis and then incubated at room temperature for an additional 10 min to stabilize the luminescent signal.
(§6) Luminescence was read by using VictorV (Perkin Elmer) multilabel plate reader using the standard protocol for luminescence in 96 well plate.
(§7) Data were expressed as % of inhibition compared to the 0.2% DMSO negative control, and was calculated as follows: % inhibition=100−[(RLU sample)×100/(RLU average controls*)] • *cells containing 0.2% DMSO
(§8) CRCs were analysed by GraphPad and IC50 values were calculated by non-linear regression using 4 parameter-logistic equation. IC50 (M) values were reported in the final data table.

The subject of the next experiment is RS4-11 (MLL-AF4) cells. Format: cell-based. The conditions noted are these: for IC50: Homo sapiens, RS4-11 (MLL-AF4), LTP assay. How it is done: as §1, §2, §3, §4, §5, §6, §7, §8
Another experiment deals with MOLM-13 (MLL-AF9) cells. In kind it is cell-based, human. The conditions noted are these: for IC50: Homo sapiens, MOLM-13 (MLL-AF9), LTP assay. Here is the method:
as §1, §2, §3, §4, §5, §6, §7, §8

Another experiment concerns MV4-11 (MLL-AF4) cells. In kind it is cell-based, human. To be noted: for IC50: Homo sapiens, MV4-11 (MLL-AF4), LTP assay. Here is the method: as §1, §2, §3, §4, §5, §6, §7, §8
Setting [1] is: 96 h, Day 4, read-out: Day 4 IC50.
The mark [2] stands for this setting: 168 h, Day 7, read-out: Day 7 IC50.
Where [3] appears, read: 264 h, Day 11, read-out: Day 11 IC50.
[4] abbreviates: 336 h, Day 14, read-out: Day 14 IC50.

For `C=CC(=O)NC1CCCN(Cc2ccnc(C(=O)Nc3ccc(-c4cc5c(N6CCOCC6)ncnc5[nH]4)cc3)c2)C1` (stereo not shown) [Compound 10], the IC50 in the experiment on HL-60 cells (96 h, Day 4, LTP assay, read-out: Day 4 IC50) amounted to 430 nM; in the experiment with HL-60 cells (168 h, Day 7, LTP assay, read-out: Day 7 IC50), 260 nM; in the experiment with HL-60 cells (264 h, Day 11, LTP assay, read-out: Day 11 IC50), 290 nM; with HL-60 cells (336 h, Day 14, LTP assay, read-out: Day 14 IC50) it was 270 nM; in the experiment on RS4-11 (MLL-AF4) cells (setting [1]), 500 nM; with RS4-11 (MLL-AF4) cells (setting [2]), 470 nM. Also, the IC50 in the experiment on RS4-11 (MLL-AF4) cells (setting [3]) is greater than 5000 nM; in the experiment on MOLM-13 (MLL-AF9) cells (setting [1]), 260 nM; in the experiment on MOLM-13 (MLL-AF9) cells (setting [2]), 280 nM; in the experiment with MOLM-13 (MLL-AF9) cells (setting [3]) it was 240 nM; in the experiment with MOLM-13 (MLL-AF9) cells (setting [4]) it was 230 nM; in the experiment on MV4-11 (MLL-AF4) cells (setting [1]) it was 460 nM. Further, the values for the IC50 with MV4-11 (MLL-AF4) cells (setting [2]), in the experiment on MV4-11 (MLL-AF4) cells (setting [3]) and with MV4-11 (MLL-AF4) cells (setting [4]) were 290 nM, 220 nM and 200 nM, respectively. The “effect on cell viability at T4” value with HL-60 cells (T4, increasing concentrations) was “fully inhibited”; with RS4-11 (MLL-AF4) cells (RS4;11, T4, increasing concentrations), “fully inhibited”; in the experiment on MOLM-13 (MLL-AF9) cells (MOLM-13, T4, increasing concentrations), “fully inhibited”; in the experiment with MV4-11 (MLL-AF4) cells (MV4-11, T4, increasing concentrations), “fully inhibited”.
